Data on 86 molecules can be found in a melting point compilation (Tetko et al.).

Usually melting point stands for the temperature, or range, at which the solid turns liquid.

As to `Cc1nn(C)c(SCC(=O)O)c1C=O`, the melting point lay in the range of 126 to 128 °C. In the case of `Nc1nc(-c2ccc([N+](=O)[O-])cc2)n[nH]1`, the melting point fell in the range of 278 to 280 °C. The molecule `CN(C)C(=O)Sc1cccc(CCl)c1` displayed a melting point of 44 to 46 °C.

`O=C(O)C1CCCN1c1ncnc2ccccc12` (stereo unspecified) returned a melting point of 139 to 141 °C. `O=C(O)c1ccccc1OCCOc1ccccc1` yielded a melting point of 84 to 86 °C. For `COCc1ccccc1S(N)(=O)=O` the value was 59 to 61 °C; for `Cc1ccc(S(=O)(=O)OCC2CCN(C(=O)OC(C)(C)C)CC2)cc1`, 72 to 74 °C.

Take `COc1ccc(C(C)CC(=O)O)cc1` (stereo unspecified): the melting point lay in the range of 66 to 68 °C. In turn, `Fc1cc2nc[nH]c2cc1F` came in with a melting point of 159 to 161 °C. For `O=c1[nH]c(Nc2ccccc2)cc2ccccc12` the value was 191 to 193 °C; for `CN(C(=O)c1ccccc1N)C1CCCCC1`, 141 to 143 °C.

In turn, `O=C(O)c1ccc(-c2ncon2)cc1` registered a melting point of 214 to 216 °C. `O=C(O)CCCOc1ccc(I)cc1` had a melting point of 126 to 128 °C. The result for `Cc1noc(-c2ccc(C)c([N+](=O)[O-])c2)n1` reads 100 to 102 °C. The result for `CSc1nc(C(=O)O)cc(C2CC2)n1` reads 135 to 137 °C. As to `O=C(CCl)N1CCC(c2nc3ccccc3s2)CC1`, the melting point lay in the range of 59 to 61 °C. The result for `O=C(O)c1ccc(/C=C/c2ccc3ccccc3n2)cc1` reads 263 to 265 °C. For `O=S(=O)(Cl)CCOc1ccccc1` the value was 37 to 39 °C; for `NC(=O)CC(N)=S`, 97 to 110 °C; for `O=C(O)c1ccccc1OCc1ccc(Cl)cc1`, 85 to 87 °C. As to `COc1ccc(/C=C/C(=O)O)cc1S(=O)(=O)Cl`, the melting point was in the range of 184 to 186 °C. Molecule `O=C(O)C=CC1CC1` gave a melting point of 68 to 70 °C. For `O=S(=O)(Cl)c1c(Br)cc(F)cc1Br` the value was 82 to 84 °C; for `O=Cc1ccc(-c2cc(Cl)ccc2Cl)o1`, 84 to 86 °C.

`CCC(NC(N)=O)C(=O)O` (stereo unspecified) came in with a melting point of 174 to 176 °C. For `COc1cc2c(cc1[N+](=O)[O-])C(=O)CCC2`, the melting point fell in the range of 176 to 178 °C. In turn, `Cc1cncc(-n2ccnc2)c1` returned a melting point of 88 to 90 °C.

In turn, `Cc1cccc(N2CCN(Cc3ccc(N)cc3)CC2)c1` had a melting point of 103 to 105 °C. The result for `CC(=O)NC1=NN(C(C)=O)C(C)(c2ccccc2)S1` (stereo unspecified) reads 223 to 225 °C; that for `Clc1cccc(-c2ccccn2)n1`, 62 to 64 °C. In turn, `CNC(=O)Cn1ccc2ccc(N)cc21` displayed a melting point of 134 to 136 °C. For `COc1cc(C(=O)O)ccc1OCc1ccc(Br)cc1` the value was 224 to 226 °C; for `Cc1c(C(=O)O)sc2cccc(F)c12`, 230 to 232 °C; for `Cc1cc(N2CCCC(N)C2=O)n(C)n1` (stereo unspecified), 88 to 90 °C. Consider `CC(C)(C)C1CCc2[nH]c(=O)sc2C1` (stereo unspecified), for which the melting point was in the range of 205 to 207 °C. For `N=C(N)c1ccc(N2CCCC2)cn1` the value was 209 to 211 °C; for `CC(C)CNC(=O)NC(=O)C(C)Cl` (stereo unspecified), 85 to 87 °C; for `COC(=O)c1ccc(F)c(CBr)c1`, 50 to 52 °C. For `NC(=O)COc1cccc(O)c1` the value was 134 to 136 °C; for `O=C1C(Br)CCN1c1ccc(Cl)c(F)c1` (stereo unspecified), 94 to 96 °C; for `NC(CC1C(=O)Nc2ccccc21)=NO` (stereo unspecified), 183 to 185 °C.

Regarding `Sc1nnc(COc2ccccc2Cl)o1`, the melting point was 135 to 137 °C. The result for `NC(=S)CN1C(=O)c2ccccc2C1=O` reads 173 to 175 °C. For `c1cnn(CC2CCNCC2)c1` the value was 45 to 47 °C.

For the molecule `O=C(O)Cc1csc(-c2ccc3c(c2)OCCO3)n1`, the melting point fell in the range of 188 to 190 °C.

Take `c1ccc2oc(C3CCNCC3)nc2c1`: the melting point lay in the range of 111 to 113 °C. Turning to `CCC(Nc1nnnn1-c1ccccc1)C(=O)O` (stereo unspecified), the melting point is 149 to 151 °C. For `COc1ccc(S(=O)(=O)Nc2cccnc2)cc1N` the value was 153 to 155 °C; for `CCOC(=O)CC(=O)CN1C(=O)c2ccccc2S1(=O)=O`, 104 to 106 °C; for `O=C(O)CCCCCc1cccs1`, 43 to 45 °C. The result for `Nc1cc(C(F)(F)F)ccc1C(=O)O` reads 175 to 176 °C. For `O=C(O)c1cnn(-c2ccc(Cl)nn2)c1C(F)(F)F` the value was 99 to 101 °C. For `O=S(=O)(Cl)c1cc(Br)cnc1Cl`, the melting point lay within 61 to 63 °C. For `O=C(O)c1ccc(OCC(F)(F)F)cc1` the value was 200 to 202 °C; for `COc1ccc(C=CC(=O)O)cc1S(=O)(=O)N1CCOCC1`, 238 to 240 °C. The result for `CCOc1ccc(F)c(C(=O)O)c1F` reads 149 to 151 °C; that for `Cc1sc(N)nc1-c1c[nH]c2ncccc12`, 240 to 242 °C. Take `COC(=O)c1cc(Oc2ccc(Cl)cc2)ccc1N`: the melting point was in the range of 74 to 76 °C. In the case of `CC(C)(C)OC(=O)Nc1ccc(CC#N)cc1`, the melting point was 119 to 121 °C.

`Nc1c(C(=O)c2cccs2)oc2ccccc12`: the melting point was 173 to 175 °C.

The molecule `CC(C)NC(=O)CCCl` had a melting point of 67 to 69 °C. For `CCC(CO)NC(=O)c1ccc(N)cc1` (stereo unspecified) the value was 153 to 155 °C. For `CC(Cl)C(=O)Nc1ccc2c(c1)OCO2` (stereo unspecified) the value was 168 to 170 °C; for `CC(=O)NC1CCCNC1` (stereo unspecified), 65 to 67 °C.

Turning to `O=C(O)CN1CCC(CO)CC1`, the melting point was in the range of 202 to 204 °C.

The molecule `COc1cc(/C=C/C(=O)O)cc(Cl)c1OC(C)C` showed a melting point of 113 to 115 °C. For `Cc1sc2ncnc(Sc3ccccc3C(=O)O)c2c1C` the value was 200 to 202 °C. The molecule `CNC(=O)c1ccc(C=O)cc1` had a melting point of 152 to 154 °C.

Take `COc1ccc(-n2nc(N)cc2C)cc1`: the melting point was in the range of 87 to 89 °C. For `O=[N+]([O-])c1ccc(F)c([N+](=O)[O-])c1F`, the melting point lay within 37 to 39 °C.

As for `Fc1ccc(-n2c(S)nc3ccccc32)c(F)c1`, the melting point was in the range of 191 to 193 °C. The result for `O=C(O)c1cc(Cl)ccc1Oc1ccc(F)cc1` reads 102 to 104 °C. The result for `CCCNc1ccc(CN2CCN(C)CC2)cn1` reads 69 to 71 °C.

In turn, `Brc1ncc(-c2ccccc2)s1` yielded a melting point of 55 to 57 °C.

Regarding `COc1ccc(-c2nc(CC(=O)O)cs2)cc1`, the melting point was in the range of 109 to 111 °C.

For the molecule `COC(=O)c1cc(-c2cccc(C(F)(F)F)c2)ccc1N`, the melting point was 72 to 74 °C.

With `CC(C)c1nnc(S)n1N`, the melting point is 117 to 119 °C. Molecule `Cc1ccc(C(C)NC(=O)CCl)cc1C` (stereo unspecified) gave a melting point of 196 to 198 °C. Turning to `Cc1cc(C)cc(N(CCC#N)C(=O)CCl)c1`, the melting point lay in the range of 67 to 69 °C. `NNC(=O)Cc1cccnc1` had a melting point of 99 to 101 °C. The result for `CCOC(=O)COc1ccccc1C(C)=O` reads 44 to 46 °C; that for `CN(c1ccc(OCC(=O)O)cc1)S(=O)(=O)c1cccs1`, 145 to 147 °C. For `O=Cc1sc(N2CCCCC2)nc1Cl` the value was 89 to 91 °C; for `O=C(Nc1nnc(-c2ccccn2)s1)OCC(F)(F)F`, 246 to 248 °C; for `Brc1cnc2nccn2c1`, 201 to 203 °C. On to `O=Cc1ccc(OCc2ccc(Cl)cc2)cc1`, for which the melting point is 72 to 74 °C.
